The record followed here is article PMC7061440 (Cell reports, 2019).

For data set [1], the system named is human mesenchymal stem cells. The data set can be described thus: Toxicity to normal cells. In kind it is cell-based.
Data set [2] relates to endometrioid ovarian cancer.
For data set [3], the system named is CD133+ cells (A2780, OVSAHO, OvCAR5). The data set can be described thus: Depletion of CD133+ CSC by FACS 72 h after treatment. It counts as cell-based. On the technique in general: A flow cytometer gives signals particle by particle.
For data set [4], the system named is bulk cells, multiple cell lines. The data set can be described thus: Bulk cell viability in multiple cell lines. In kind it is cell-based.
Another data set deals with PEO1 cells. The data set can be described thus: ALDEFLUOR assay of ALDH activity in live PEO1 cells. It counts as cell-based.
Data set [5] has as its system Ovsaho, HEY-1, and A2780 cell-line xenografts. The data set can be described thus: Cell-line xenografts, single agent.
Another data set deals with platinum-resistant PDX. The data set is described as follows: Chemotherapy-resistant patient-derived xenograft. In kind it is in vivo, mice. The following applies: 673A added to carboplatin or cisplatin. Background: In xenograft studies the graft and the host belong to different species.
Data set [6] concerns the target ALDH1A1 Cys303 in SKOv3 tumors (Homo sapiens, UniProt P00352). The data set is described as follows: isoTOP-ABPP of ALDH1A in tumors in vivo. Also on record: species or system mice. Particulars: 673A-treated tumors.
Data set [7] has as its system FACS-isolated ALDH+CD133+ A2780 cells. The data set can be described thus: Single-cell microfluidic culture cell death. In kind it is cell-based. Particulars: microfluidic chips, 72 h.
In data set [8] the test system is non-malignant MCF10A cells. The data set is described as follows: Toxicity to normal cells. It counts as cell-based.
For data set [9], the system named is chemotherapy-resistant SKOv3 cells. The data set is described as follows: Cellular recovery assay with cisplatin. It counts as cell-based. The following applies: for cellular recovery: SKOv3, 9 days after treatment, single agent.
In data set [10] the test system is FACS-sorted ALDH+ SKOv3 cells. The data set can be described thus: Intraperitoneal ALDH+ SKOv3 survival study.
The next data set has as its system SKOv3 cells. In kind it is in vivo, mice.
Data set [11] deals with FACS-sorted CD133+ (A2780) cells. The data set is described as follows: Annexin-V/PI FACS analysis of apoptosis. It counts as cell-based. Particulars: 12.5 μM.
In another data set the target is ALDH1A2 (Homo sapiens, UniProt O94788). The data set is described as follows: ALDH enzymatic activity, in vitro inhibition. In kind it is biochemical. The following applies: IC50 ALDH1A2, in vitro enzymatic assay, propionaldehyde/NAD+.
Sequence of ALDH1A2 (O94788 whole entry): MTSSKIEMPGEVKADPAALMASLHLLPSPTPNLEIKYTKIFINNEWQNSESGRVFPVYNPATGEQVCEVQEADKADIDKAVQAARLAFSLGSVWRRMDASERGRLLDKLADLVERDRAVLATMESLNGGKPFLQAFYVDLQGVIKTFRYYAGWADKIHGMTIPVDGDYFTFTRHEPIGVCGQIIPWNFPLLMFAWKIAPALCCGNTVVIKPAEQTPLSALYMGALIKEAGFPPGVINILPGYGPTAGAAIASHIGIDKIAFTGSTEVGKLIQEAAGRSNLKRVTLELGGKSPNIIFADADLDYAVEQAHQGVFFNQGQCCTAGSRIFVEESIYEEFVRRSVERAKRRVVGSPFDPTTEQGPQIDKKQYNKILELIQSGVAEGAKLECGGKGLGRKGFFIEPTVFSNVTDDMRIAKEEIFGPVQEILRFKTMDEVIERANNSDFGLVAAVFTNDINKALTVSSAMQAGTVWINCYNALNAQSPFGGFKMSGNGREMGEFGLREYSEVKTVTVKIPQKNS
The test system of the next data set is CaoV3 cells. The data set can be described thus: Minimal residual disease model, CaoV3 subcutaneous. Particulars: 3 weeks treatment, 6 months follow-up.
The test system of data set [12] is OVCAR5-ALDH1A3-knockout (KO) cells. The data set is described as follows: 673 dose-response in CRISPR knockout cells. In kind it is cell-based.
The target of a further data set is ALDH2 (Homo sapiens, UniProt P05091). The data set can be described thus: biochemical.
Sequence of ALDH2 (P05091 18-517): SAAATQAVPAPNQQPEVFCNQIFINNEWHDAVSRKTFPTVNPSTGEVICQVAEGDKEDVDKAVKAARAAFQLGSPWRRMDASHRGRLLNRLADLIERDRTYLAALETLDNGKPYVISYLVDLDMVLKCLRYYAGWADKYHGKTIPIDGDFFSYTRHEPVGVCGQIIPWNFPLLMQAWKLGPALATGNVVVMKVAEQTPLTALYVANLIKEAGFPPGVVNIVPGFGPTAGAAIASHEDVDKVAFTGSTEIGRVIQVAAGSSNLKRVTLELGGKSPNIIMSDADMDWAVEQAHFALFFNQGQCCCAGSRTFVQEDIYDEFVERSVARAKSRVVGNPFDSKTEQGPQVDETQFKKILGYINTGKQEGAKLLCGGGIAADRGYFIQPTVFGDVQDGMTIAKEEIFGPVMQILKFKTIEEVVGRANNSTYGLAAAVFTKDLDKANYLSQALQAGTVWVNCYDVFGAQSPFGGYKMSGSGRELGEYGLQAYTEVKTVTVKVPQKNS
A short description of data set [13]: Hematologic, renal, and liver function tests. In kind it is in vivo. The following applies: liver function tests, 673A added to cisplatin.
Data set [14] deals with primary patient cells (HGS). The data set can be described thus: Tumor sphere growth assay. In kind it is cell-based, human. The following applies: single 12.5 μM dose.
A further data set concerns splenocytes. The data set can be described thus: ALDEFLUOR activity in splenocytes of treated animals. In kind it is in vivo, mice. Particulars: animals being treated with 673A.
The target in the next data set is ALDH1A3 (Homo sapiens, UniProt P47895). The data set can be described thus: ALDH enzymatic activity, in vitro inhibition. It counts as biochemical. The following applies: IC50 ALDH1A3, in vitro enzymatic assay, propionaldehyde/NAD+.
Sequence of ALDH1A3 (P47895 whole entry): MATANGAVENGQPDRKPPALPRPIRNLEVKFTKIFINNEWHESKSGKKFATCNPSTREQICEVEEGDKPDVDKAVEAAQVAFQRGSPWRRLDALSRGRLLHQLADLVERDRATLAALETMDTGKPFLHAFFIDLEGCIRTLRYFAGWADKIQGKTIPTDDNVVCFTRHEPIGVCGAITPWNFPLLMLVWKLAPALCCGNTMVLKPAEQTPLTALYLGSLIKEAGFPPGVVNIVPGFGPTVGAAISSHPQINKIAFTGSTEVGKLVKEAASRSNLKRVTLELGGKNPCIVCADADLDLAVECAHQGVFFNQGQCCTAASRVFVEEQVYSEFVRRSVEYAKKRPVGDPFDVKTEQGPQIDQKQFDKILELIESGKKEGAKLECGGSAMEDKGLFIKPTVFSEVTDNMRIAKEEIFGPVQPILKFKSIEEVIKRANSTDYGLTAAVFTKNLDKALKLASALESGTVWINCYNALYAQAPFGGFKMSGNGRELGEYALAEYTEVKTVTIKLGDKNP
Data set [15] has as its system primary cells from HGSC patients. The data set is described as follows: Seahorse mitochondrial flux analysis. The following applies: 12.5 μM. It counts as cell-based, human.
For data set [16], the system named is other ALDH family members. The data set is described as follows: ALDH enzymatic activity, in vitro inhibition. In kind it is biochemical. The following applies: in vitro enzymatic assay.
The target of another data set is ALDH1A1 (Homo sapiens, UniProt P00352). The data set is described as follows: ALDH enzymatic activity, in vitro inhibition. It counts as biochemical. The following applies: IC50 ALDH1A1, in vitro enzymatic assay, propionaldehyde/NAD+.
Sequence of ALDH1A1 (P00352 whole entry): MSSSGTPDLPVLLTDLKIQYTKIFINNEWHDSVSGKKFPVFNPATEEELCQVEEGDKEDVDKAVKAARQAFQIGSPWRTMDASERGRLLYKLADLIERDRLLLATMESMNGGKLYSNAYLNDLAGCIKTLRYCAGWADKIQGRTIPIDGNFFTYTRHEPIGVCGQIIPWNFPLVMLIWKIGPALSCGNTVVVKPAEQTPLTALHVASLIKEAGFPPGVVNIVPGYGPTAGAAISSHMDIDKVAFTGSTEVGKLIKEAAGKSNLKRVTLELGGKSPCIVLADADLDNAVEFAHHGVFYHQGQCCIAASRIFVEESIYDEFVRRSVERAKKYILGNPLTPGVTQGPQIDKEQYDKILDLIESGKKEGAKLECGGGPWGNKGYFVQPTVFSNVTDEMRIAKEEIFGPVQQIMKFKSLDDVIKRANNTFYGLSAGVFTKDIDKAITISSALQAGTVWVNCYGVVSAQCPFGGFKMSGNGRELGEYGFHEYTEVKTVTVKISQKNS
The next data set has as its system CD133+ cells. The data set is described as follows: Intracellular calcium level. It counts as cell-based.

Several values for one entry are separate records, joined by “and”; a condition that tells them apart may be missing. Equal entries are not always repeated.

Sequence of ALDH1A1 Cys303 in SKOv3 tumors (P00352 whole entry): as above

As a reminder, the inhibition is the relative decrease from the control value, in per cent. One may read the IC50 as the concentration at which inhibition is half-maximal. A low value points to greater potency. Regarding `O=Cc1ccc(N2Cc3ccccc3C2)cc1` [673A, 4-(1,3-dihydro-2H-isoindol-2-yl)benzaldehyde], the “toxicity to human mesenchymal stem cells” value in data set [1] was “little or no toxicity”. Also, the “mice tumor free at conclusion of experiment” value in data set [2] (carboplatin weekly and 673A 20 mg/kg daily for 7 weeks) was found to be 27%. For the same compound, the “depletion of CD133+ CSCs / toxicity” value in data set [3] was “highly effective at preferentially depleting CD133^+ CSC”. In [4], the “TD50 bulk cell viability” value lay in the range of 40 to 80 µM. Also, the inhibition at 25 µM in the data set with PEO1 cells (Homo sapiens, PEO1, 6 h, read-out: inhibition of ALDEFLUOR activity) is 98%. Also, the “time to inhibition of PEO1 ALDEFLUOR activity” value in the data set on PEO1 cells (PEO1 cells, persisted after 6 h) is at most 1 h. In data set [5] (20 mg/kg daily for 21 days), the “reduction of tumor burden” value was 40%–60%. Moreover, in data set [5] (in vivo, single agent), the “reduction of tumor growth as a single agent” value is listed as over 50%. Besides, the “reduction of final tumor weight” value with platinum-resistant PDX is listed as “more than 2 fold”. The “engagement of ALDH1A1 catalytic residue” value in [6] was “clear protection of the catalytic residue Cys303 in ALDH1A1”. The “treated cells that died” value in [7] is recorded as over 90%. Moreover, in [8], the “toxicity to non-malignant MCF10A cells” value is reported as “little or no toxicity”. Also, the “reduction in cell number” value in [9] (SKOv3, 9 days after combined treatment of cisplatin and 673A) is given as 30 fold. Besides, in data set [9], the cellular recovery was 100%. Besides, in data set [10] (cisplatin and 673A), the “mice disease free at 6 months” value stood at 62%. Also, the tumor initiation capacity entry in the data set with SKOv3 cells (673A combined with cisplatin therapy) is reported as “eliminated tumor initiation capacity”. Further, the “reduction in tumor growth versus no treatment or cisplatin therapy” value with SKOv3 cells (SKOv3 treated in vitro 12.5 μM, 48 h, 5,000 live cells injected) is on record as 4–5 fold. In addition, the “reduction of tumor initiation” value with SKOv3 cells (limiting dilution assay, 673A alone) is reported as ~ 50%. Moreover, the “induction of annexin-V” value in [11] is recorded as “no significant early or late induction of annexin-V”. For the same compound, the IC50 against ALDH1A2 is 230 nM and < 350 nM; on ALDH2 it was 14000 nM and ~15000 nM; on ALDH1A3, 348 nM and < 350 nM; on ALDH1A1, 246 nM and < 350 nM. For the same compound, the “mice that developed tumors” value in the data set with CaoV3 cells (cisplatin and 673A) is 40%; in the data set on CaoV3 cells (single agent), 50%. Further, the “increase in TD50 versus control cells” value in [12] is given as ~ 10 ×. Moreover, in data set [13], the “toxicity with addition to cisplatin” value is reported as “no additional toxicity”. For the same compound, the “average reduction in tumor sphere formation” value in [14] is 19 fold. The “decrease of ALDEFLUOR activity in splenocytes” value with splenocytes was found to be 3 fold. Also, the OXPHOS capacity entry in data set [15] is reported as “decreased OXPHOS capacity”. For the same compound, the “inhibition of other ALDH family members tested” value in [16] was “minimal or no inhibition”. The “increase in intracellular Ca” value in the data set on CD133+ cells (16 h after treatment) came to 1.5 fold; with CD133+ cells (24 h after treatment) it was 6 fold.
For the compound `N.N.[Cl][Pt][Cl]` [cisplatin, reference compound], the cellular recovery in data set [9] turned out to be 100%. The mice that died in data set [10] (cisplatin only) is reported as 100%. Also, the “mice that developed tumors” value in the data set with CaoV3 cells (single agent) is given as “Ninety”.
Turning to `CCN(CC)c1ccc(C=O)cc1` [DEAB, N,N-diethylaminobenzaldehyde, reference compound], the “depletion of CD133+ CSCs / toxicity” value in data set [3] was “preferential depletion of CD133^+ cells”. Further, the “inhibition of ALDEFLUOR activity” value with PEO1 cells (PEO1 cells, 6 h, equimolar doses (25 μM)) is 40%.
As for `O=c1c(-c2ccc(O)cc2)coc2cc(O[C@@H]3O[C@H](CO)[C@@H](O)[C@H](O)[C@H]3O)ccc12` [daidzin, reference compound], in data set [3], the “depletion of CD133+ CSCs / toxicity” value is listed as “no significant toxicity”. In [9] (SKOv3, added to cisplatin), the “therapeutic benefit of addition to cisplatin” value is “No therapeutic benefit”.
For `CCN(CC)C(=S)SSC(=S)N(CC)CC` [DSF, disulfiram, reference compound], the “effect on cancer growth” value in the data set on SKOv3 cells (SKOv3 treated in vitro, 5,000 live cells injected) is on record as “no effect on cancer growth”.
With `N.N.O=C([O-])C1(C(=O)[O-])CCC1.[Pt+2]` [carboplatin, reference compound], the “mice tumor free after therapy” value in data set [2] (carboplatin alone, 25 mg/kg weekly) came to 16%.
